Where two headings read alike, the source gives them in different places. Marks after values point to notes of the source that are not given here.
Legend:
fertility of female rats = test: Rat fertility test: single application in pro oestrus, pairing, number of implantation sites; assay type: in vivo, Han Wistar rats
Procedure: In the experiments below, female Han Wistar rats with a weight of 200-270 g were used. The animals were kept in Macrolon cages in rooms with controlled lighting (12 hours darkness: 12 hours lightness), fed with a standard diet and watered with water ad libitum. Levonorgestrel was dissolved in benzyl benzoate/castor oil (1+4 v/v) and the daily dose was applied in a volume of 1 ml/kg of body weight s.c. The COX inhibitors were suspended in a carrier liquid (85 mg Myrj®53 polyoxyl(50)stearate; CAS No. 9004-99-3) in 100 ml of 0.9% w/v NaCl solution) and the dose corresponding to the treatment group was administered orally in a volume of 2 ml/kg of body weight. Two cycles were observed using vaginal smears prior to the start of the experiment. […] Assignment to the treatment groups was random. The animals were treated once with the test substances either on their own or in combination in pro oestrus, the day in the cycle on which in the evening the LH peaked. On the evening of […] the female animals were paired with male rats. Successful pairing was tested the next morning by means of a vaginal sperm detection in the vaginal smear. The influence on the fertility was ascertained 9-15 days after the pairing via the number of implantation sites of the animals. The group size was n=6 animals per group.

ovulation of women = test: Clinical phase IIa study: oral single dose of piroxicam after start of the LH increase, ovulation inhibition or delay; assay type: in vivo; conditions: for Time from LH increase to ovulation in the treatment cycle, average value / Time from LH increase to ovulation in the treatment cycle, median / Time from LH increase to ovulation in the treatment cycle, range: N = 16; for % of women who exhibited an at least plus 24 hour delay in ovulation / Number of women who exhibited an at least plus 24 hour delay in ovulation compared to the median time between LH increase and ovulation in the untreated previous cycle: N = 16, final evaluation set
Procedure: In a clinical phase IIa study (monocentric, double blind, placebo controlled, randomized, parallel groups), piroxicam was administered to women of a fertile age in the dosages 20, 40 and 80 mg as an oral single dose. Overall, 72 women were treated, of which 18 women were given 20 mg, 17 women were given 40 mg, 20 women were given 80 mg of piroxicam and 17 women were given a placebo preparation. It was the aim of the study to investigate whether the oral single administration of piroxicam after the start of the LH increase has an effect on ovulation compared to the placebo in healthy young women. An ovulation inhibition or delay by at least plus 24 hours longer than the median duration between LH increase and ovulation in the untreated previous cycle of the study population was evaluated as the effect. For this purpose, transvaginal ultrasound investigations and hormone level measurements were carried out. Only women (n=64) without serious protocol deviations which could have influenced the study aim were included in the final study evaluation.
Adapted Kaplan-Meier curve for depicting the ovulation delay following administration of piroxicam compared to the administration of a placebo preparation. The time after the LH increase is plotted on the X axis in days. […] The individual curves represent the individual treatment groups: placebo group (solid line); 20 mg of piroxicam (dotted line consisting of short strokes), 40 mg of piroxicam (dotted line consisting of long strokes) and 80 mg of piroxicam (dotted line consisting of alternating long and short strokes).

cervical secretion = conditions: clinical study; cited from earlier work
[1] = tested on: prostaglandin E2 (PEG2) synthesis in the ovaries
fertility in humans = conditions: taken over a prolonged period for treating Bechterew's disease; cited from earlier work
[2] = Table 2.1, treatment at 7:00, LNG 0.5 mg/animal s.c., piroxicam 2 mg/animal oral, single application
[3] = Table 2.1, treatment at 13:00, LNG 0.5 mg/animal s.c., piroxicam 2 mg/animal oral, single application
[4] = Table 2.2, treatment at 17:00, LNG 0.5 mg/animal, indomethacin 1 mg/animal, combination n = 5
[5] = Table 2.3, treatment at 17:00, LNG 0.5 mg/animal (n = 5), diclofenac 4 mg/animal
[6] = Table 2.4, treatment at 17:00, LNG 0.5 mg/animal, ibuprofen 12.5 mg/animal
[7] = Table 2.5, LNG 0.5 mg/animal at 17:00 (n = 5), naproxen 10 mg/animal at 20:00 (n = 4), combination 17:00
[8] = Table 2.4, treatment at 17:00, ibuprofen 25 mg/animal alone or with LNG 0.5 mg/animal
[9] = Table 2.5, naproxen 2 × 5 mg/animal at 17:00 and 20:00, alone or with LNG 0.5 mg/animal

**Q.** Which “Implantations per animal (average value ± SD)” value (fertility of female rats; [2]) does the source give for `C#C[C@]1(O)CC[C@H]2[C@@H]3CCC4=CC(=O)CC[C@@H]4[C@H]3CC[C@@]21CC` [LNG, levonorgestrel] here?
**A.** Its value is 8.3 ± 4.3.

**Q.** What about the “Sum of the implantation site, of 6 animals” value (fertility of female rats; [2]) of the same compound?
**A.** The value was 50.

**Q.** And the “Implantations per animal (average value ± SD)” value (fertility of female rats; [3])?
**A.** Its value is 5.3 ± 3.1.

**Q.** What about the “Sum of the implantation site, of 6 animals” value (fertility of female rats; [3]) of the same compound?
**A.** Its value is 32.

**Q.** And the “Implantations per animal (average value ± SD)” value (fertility of female rats; [4])?
**A.** Its value is 7.5 ± 4.0.

**Q.** What about the “Sum of the implantation sites of 6 animals” value (fertility of female rats; [4]) of the same compound?
**A.** The value was 45.

**Q.** And the “Implantations per animal (average value ± SD)” value (fertility of female rats; [5])?
**A.** The value was 6.8 ± 5.9.

**Q.** What about the “Sum of the implantation sites of 6 animals” value (fertility of female rats; [5]) of the same compound?
**A.** The value was 34*.

**Q.** What about the “Implantations per animal (average value ± SD)” value (fertility of female rats; [6]) of the same compound?
**A.** Its value is 10.5 ± 4.5.

**Q.** What about the “Sum of the implantation sites of 6 animals” value (fertility of female rats; [6]) of the same compound?
**A.** Its value is 63.

**Q.** What about the “Implantations per animal (average value ± SD)” value (fertility of female rats; [7]) of the same compound?
**A.** Its value is 7.8 ± 5.9.

**Q.** What about the “Sum of the implantation sites of 6 animals” value (fertility of female rats; [7]) of the same compound?
**A.** The value was 39*.

**Q.** For `COc1ccc2c(c1)c(CC(=O)O)c(C)n2C(=O)c1ccc(Cl)cc1` [Indomethacin, indomethacin], which “Implantations per animal (average value ± SD)” value (fertility of female rats; [4]) is on record?
**A.** The value was 4.8 ± 4.1.

**Q.** And the “Sum of the implantation sites of 6 animals” value (fertility of female rats; [4])?
**A.** The value was 29.

**Q.** Which “Extension of the time (median) between LH increase and ovulation in the treatment cycle compared to the previous cycle” value (ovulation of women; 20 mg oral single dose) does the source give for `CN1C(C(=O)Nc2ccccn2)=C(O)c2ccccc2S1(=O)=O` [Piroxicam, piroxicam] here?
**A.** Its value is 17 h.

**Q.** And the “Time from LH increase to ovulation in the treatment cycle, average value” (shortened to “Time from LH increase … average value”) (ovulation of women; 20 mg oral single dose)?
**A.** Its value is 133 h.

**Q.** What about the “Time from LH increase to ovulation in the treatment cycle, median” value (“Time from LH increase to ovulation … median” for short) (ovulation of women; 20 mg oral single dose) of the same compound?
**A.** Its value is 65 h.

**Q.** What about the “Time from LH increase to ovulation in the treatment cycle, range” value (“Time from LH increase to ovulation … range” below) (ovulation of women; 20 mg oral single dose) of the same compound?
**A.** Its value is 38 to 416 h.

**Q.** What about the “% of women who exhibited an at least plus 24 hour delay in ovulation” value (ovulation of women; 20 mg oral single dose) of the same compound?
**A.** Its value is 50.0%.

**Q.** What about the “Number of women who exhibited an at least plus 24 hour delay in ovulation compared to the median time between LH increase and ovulation in the untreated previous cycle” value (ovulation of women; 20 mg oral single dose) of the same compound?
**A.** The value was 8.

**Q.** And the “Extension of the time (median) between LH increase and ovulation in the treatment cycle compared to the previous cycle” value (ovulation of women; 40 mg oral single dose)?
**A.** Its value is 15 h.

**Q.** And the “Time from LH increase … average value” (ovulation of women; 40 mg oral single dose)?
**A.** The value was 121 h.

**Q.** And the “Time from LH increase to ovulation … median” value (ovulation of women; 40 mg oral single dose)?
**A.** Its value is 63 h.

**Q.** And the “Time from LH increase to ovulation … range” value (ovulation of women; 40 mg oral single dose)?
**A.** The value was 37 to 384 h.

**Q.** And the “% of women who exhibited an at least plus 24 hour delay in ovulation” value (ovulation of women; 40 mg oral single dose)?
**A.** Its value is 43.8%.

**Q.** And the “Number of women who exhibited an at least plus 24 hour delay in ovulation compared to the median time between LH increase and ovulation in the untreated previous cycle” value (ovulation of women; 40 mg oral single dose)?
**A.** Its value is 7.

**Q.** What about the “Extension of the time (median) between LH increase and ovulation in the treatment cycle compared to the previous cycle” value (ovulation of women; 80 mg oral single dose) of the same compound?
**A.** Its value is 228 h.

**Q.** What about the “Time from LH increase … average value” (ovulation of women; 80 mg oral single dose) of the same compound?
**A.** The value was 219 h.

**Q.** And the “Time from LH increase to ovulation … median” value (ovulation of women; 80 mg oral single dose)?
**A.** Its value is 276 h.

**Q.** What about the “Time from LH increase to ovulation … range” value (ovulation of women; 80 mg oral single dose) of the same compound?
**A.** The value was 48 to 386 h.

**Q.** What about the “% of women who exhibited an at least plus 24 hour delay in ovulation” value (ovulation of women; 80 mg oral single dose) of the same compound?
**A.** Its value is 68.8%.

**Q.** And the “Number of women who exhibited an at least plus 24 hour delay in ovulation compared to the median time between LH increase and ovulation in the untreated previous cycle” value (ovulation of women; 80 mg oral single dose)?
**A.** The value was 11.

**Q.** And the “Effect on ovulation compared to placebo (in words)” value (ovulation of women; all three dose groups (20, 40, 80 mg))?
**A.** The value was “more marked effect on ovulation than in the placebo group”.

**Q.** And the “Implantations per animal (average value ± SD)” value (fertility of female rats; [2])?
**A.** Its value is 9.5 ± 4.8.

**Q.** What about the “Sum of the implantation site, of 6 animals” value (fertility of female rats; [2]) of the same compound?
**A.** The value was 57.

**Q.** And the “Implantations per animal (average value ± SD)” value (fertility of female rats; [3])?
**A.** Its value is 10.0 ± 5.3.

**Q.** What about the “Sum of the implantation site, of 6 animals” value (fertility of female rats; [3]) of the same compound?
**A.** Its value is 60.

**Q.** Which results are given for `CC(C)Cc1ccc(C(C)C(=O)O)cc1` (stereo not drawn) [Ibuprofen, ibuprofen]?
**A.** Implantations per animal (average value ± SD) (fertility of female rats; [6]): 10.8 ± 3.2; Sum of the implantation sites of 6 animals (fertility of female rats; [6]): 65; Implantations per animal (average value ± SD) (fertility of female rats; [8]): 11.3 ± 2.6; Sum of the implantation sites of 6 animals (fertility of female rats; [8]): 68

**Q.** What does the source list for `O=C(O)Cc1ccccc1Nc1c(Cl)cccc1Cl` [Diclofenac, diclofenac]?
**A.** Effect on cervical secretion (in words) (cervical secretion): reduction in cervical secretion; Implantations per animal (average value ± SD) (fertility of female rats; [5]): 3.7 ± 3.6; Sum of the implantation sites of 6 animals (fertility of female rats; [5]): 22

**Q.** What does the source list for `COc1ccc2cc([C@H](C)C(=O)O)ccc2c1` [Naproxen, naproxen]?
**A.** Prostaglandin E2 in the ovaries, average value ([1]; sample at 18:00, 2 hours after oral 20 mg/kg naproxen (around 16:00)): 12.9 pg/500 μg tissue; Prostaglandin E2 in the ovaries, average value ([1]; sample at 20:00, 4 hours after oral 20 mg/kg naproxen (around 16:00)): 32.1 pg/500 μg tissue; Prostaglandin E2 in the ovaries, average value ([1]; sample at 22:00, 6 hours after oral 20 mg/kg naproxen (around 16:00)): 72.4 pg/500 μg tissue; Prostaglandin E2 (PEG2) synthesis in the ovaries (in words) ([1]; under the action of naproxen): reduced; Implantations per animal (average value ± SD) (fertility of female rats; [7]): 5.8 ± 4.4; Sum of the implantation sites of 6 animals (fertility of female rats; [7]): 23**; Implantations per animal (average value ± SD) (fertility of female rats; [9]): 7.3 ± 3.6; Sum of the implantation sites of 6 animals (fertility of female rats; [9]): 44; Antifertile effect in the rat fertility test (in words) (fertility of female rats; single application, doses as in Tables 2.1-2.5): reduction in fertility; Effect on fertility in humans (in words) (fertility in humans): antifertile effect
